Results reported in patent US5573908A, “Adrenergic receptor as a proto-oncogene” (Duke University, priority 1993, dated 1996).
“And” between values parts separate entries of the source, which are not always exact repeats. Equal values may be shown once. “Also recorded” adds a separate entry of the source.

Key:
[1] = tested on: RAT-1 fibroblast cell lines expressing the α1B -ADR; assay: cells; details: 600 h, read-out: final cell density (day 25) relative to control
Procedure: Growth curves of G418 selected RAT-1 fibroblast cell lines transfected with vector alone (A), or expressing the α1B -ADR (B) or α1B -ADR mutant (C) in the absence (------) or presence (---) of norepinephrine (NE). Cells were plated in 100mm dishes at a density of 5×10^5 cells per dish in DMEM containing 5% FBS. After 24 hours, half the dishes received daily supplementation with 10 μM NE, and all dishes were fed with fresh medium every 2-3 days. At each time point, cells were trypsinized and cell counts determined using an electronic particle counter (Coulter Electronics). Values represent the mean of duplicate determinations of a representative experiment, which agree within 6%.
To quantitate receptor-mediated effects on mitogenesis, basal and NE-stimulated growth rates were assessed on cell lines expressing the wild type or mutant α1B -ADRs.

[2] = tested on: α1B -ADR; details: NE alone, serum free medium; data not shown
[3] = tested on: RAT-1 fibroblast cell line derived from a single transformed focus expressing the α1B -ADR; assay: Morphology of focus-derived RAT-1 fibroblast cell line expressing the α1B-ADR; format: cell-based; details: 10 μM NE, 36 hours, 5% FBS
[4] = tested on: RAT-1 fibroblast cell lines transfected with vector alone; assay: Growth curves of RAT-1 fibroblast cell lines transfected with vector alone; format: cell-based; details: 10 μM NE daily, 5% FBS
[5] = tested on: RAT-1 fibroblasts transfected with ras c-DNA; assay: Focus formation in RAT-1 fibroblasts transfected with activated Ha-ras c-DNA; format: cell-based
Procedure: (§1) Transfection was carried out as follows: RAT-1 fibroblasts were seeded at a density of 2×10^5 cells in Dulbecco's modified Eagle's medium (DMEM) (Gibco) containing 5% fetal bovine serum (FBS) in 100 mm dishes. Cells were grown overnight, then transfected with 10 μg of DNA (expression vector alone [pZIP-NeoSV(X)1] or containing the α1B-ADR, α1B -ADR mutant [discussed in Example 3 below] or activated Ha-ras c-DNAs) by calcium phosphate precipitation (B. Cullen, Methods Enzymol. 152, 684 (1987)). The α1B -ADR used herein was the hamster α1B -ADR described in S. Cotecchia et al., Proc. Natl. Acad. Sci. USA 85, 7159-7163 (1988). After 16 hours, the DNA precipitate was removed, the cells washed and grown for 24 hours in complete medium. Cells were split 1:5, allowed to attach overnight and then cultured in DMEM with 5% FBS alone, supplemented with 10 μM norepinephrine (NE) or G418 (300 μg/ml). Dishes were supplemented with NE daily, and fed every 3 days with fresh medium.
(§2) ^1 Cells were cultured for 3 weeks in the presence or absence of 10
(§3) μM norepinephrine (NE), supplemented daily, in medium containing 5%
(§4) FBS. The number of transformed foci were scored after 4 weeks of culture.
(§5) Results represent the average duplicate determinations from two
(§6) independent experiments which agreed within 25%; nd = not determined. […]
(§7) growth, the number of foci was scored. […]

[6] = tested on: RAT-1 fibroblasts transfected with expression vector alone; assay: Focus formation in RAT-1 fibroblasts transfected with expression vector alone; format: cell-based
Procedure: as §1, §2, §3, §4, §5, §6, §7

[7] = NE stimulated PI hydrolysis in RAT-1 cell lines transfected with vector alone; format: cell-based; details: 40 min, 10 μM NE, 40 minute, two clones, read-out: NE Stimulated PI Hydrolysis Rmax
From the text: In cell lines expressing the α1B -ADR mutant, NE induced a 900 to 1000% increase in inositol phosphates (Table 3); this level of PI hydrolysis was only seen in cells expressing the wild type receptor with a two fold higher level of receptor expression. […] The α1B -ADR, appearing on the surface of RAT-1 fibroblasts following transfection, therefore, functionally couples to PI hydrolysis in these cells. Whether receptor coupling to PLC actually mediates the α1B -ADR's ability to induce malignant transformation in these cells, however, remains speculative. Coupling of this receptor to alternate G proteins or effector systems may be responsible for triggering uncontrolled cell proliferation.
In Table 3, RAT-1 fibroblast cell lines transfected with expression vector alone or derived from transformed foci (α1B ADR or α1B ADR mutant) were selected with G418 (300 μg/ml). Ligand binding was performed on membranes prepared from two clones of each in accordance with known techniques (S. Cotecchia et al., Life Sci. 37, 2389 (1986)). For saturation binding analysis, [^125 ] HEAT concentrations ranged from 10 to 500 pM, nonspecific binding was determined using 1 μM prazosin; in competition experiments, the radioligand concentration was 100 pM. Ligand binding parameters were determined using computerized iterative nonlinear regression analysis (P. Munson, Methods in Enzymol. 92, 5432 (1983)). […]

[8] = tested on: RAT-1 fibroblasts transfected with α1B -ADR mutant; assay: Focus formation in RAT-1 fibroblasts transfected with α1B-ADR mutant c-DNA; format: cell-based
Procedure: as §1, §2, §3, §4, §5, §6, §7

## NC[C@H](O)c1ccc(O)c(O)c1 [NE, norepinephrine]
[1]
  fold induction at 10 µM: 1.9
[2]
  increase in DNA synthetic activity: 11 fold
[3]
  cellular morphology / phenotype in the presence of agonist: reverted to the transformed phenotype; also recorded: agonist-dependent alteration in cellular morphology with a loss in cellular orientation and decreased adhesiveness
[4]
  rate of cell proliferation in the presence or absence of catecholamines: no significant difference
[5]; RAT-1 transfected with ras, 10 μM NE supplemented daily, 5% FBS (Table 1)
  Foci No. +NE: 197
[5]; focus derived RAT-1 cell lines, ras, 10 μM NE, 3 weeks of growth, two clones (Table 2)
  Foci No. +NE: > 500 and 460
[6]; RAT-1 cell lines transfected with vector alone, 10 μM NE, 3 weeks of growth, two clones (Table 2)
  Foci No. +NE: 0
[6]; RAT-1 transfected with vector alone, 10 μM NE supplemented daily, 5% FBS (Table 1)
  Foci No. +NE: 0
[7]
  activation at 10 µM: 0%
[8]; RAT-1 transfected with α1B ADR mutant, 10 μM NE supplemented daily, 5% FBS, initially transfected cells (Table 1)
  Foci No. +NE: 11
[8]; focus derived RAT-1 cell lines, α1B ADR mutant, 10 μM NE, 3 weeks of growth, two clones (Table 2)
  Foci No. +NE: > 500
